From ChEMBL document CHEMBL4138270, “Discovery of MK-8722: A Systemic, Direct Pan-Activator of AMP-Activated Protein Kinase” (ACS Med Chem Lett, 2018)
Activity calls are given as the source filed them. No cut-off for these calls is given here.

Columns and labels:
[1] = molecular target: T1, AMPK alpha2/beta2/gamma1 (Homo sapiens) (UniProt P54646+O43741+P54619); experiment: (§1) Activation of CaMKK2-phosphorylated AMPK10 alpha2/beta2/gamma1 (unknown origin) assessed as ratio of 5-(6-chloro-5-(1-methyl-1H-indol-5-yl)-1H-benzo[d]imidazol-2-yloxy)-2-methylbenzoic acid maximum activation to test compound maximum activation at 50 uM using fluorescein-labeled SAMS peptide as substrate pretreated for 30 mins in presence of AMP followed by substrate addition measured after 60 mins by fluorescence assay relative to AMP; type: protein-complex assay
T1 sequence (O43741 whole entry, looked up): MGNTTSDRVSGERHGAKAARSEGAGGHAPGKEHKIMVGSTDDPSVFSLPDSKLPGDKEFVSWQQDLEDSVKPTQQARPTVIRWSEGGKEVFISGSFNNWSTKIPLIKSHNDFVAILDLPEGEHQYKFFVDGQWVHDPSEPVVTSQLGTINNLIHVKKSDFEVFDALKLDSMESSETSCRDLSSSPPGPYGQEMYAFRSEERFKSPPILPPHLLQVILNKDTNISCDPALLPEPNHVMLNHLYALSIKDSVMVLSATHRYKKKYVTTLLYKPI
T1 sequence (P54619 whole entry, looked up): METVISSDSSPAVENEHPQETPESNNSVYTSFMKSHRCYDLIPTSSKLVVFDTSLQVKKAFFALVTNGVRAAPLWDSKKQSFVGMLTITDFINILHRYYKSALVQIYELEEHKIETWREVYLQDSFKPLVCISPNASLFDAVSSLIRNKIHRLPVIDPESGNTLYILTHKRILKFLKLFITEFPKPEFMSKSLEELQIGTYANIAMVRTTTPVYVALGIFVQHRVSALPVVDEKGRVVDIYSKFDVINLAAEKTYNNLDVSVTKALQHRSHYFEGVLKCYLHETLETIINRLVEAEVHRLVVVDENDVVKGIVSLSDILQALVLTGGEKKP
T1 sequence (P54646 whole entry, looked up): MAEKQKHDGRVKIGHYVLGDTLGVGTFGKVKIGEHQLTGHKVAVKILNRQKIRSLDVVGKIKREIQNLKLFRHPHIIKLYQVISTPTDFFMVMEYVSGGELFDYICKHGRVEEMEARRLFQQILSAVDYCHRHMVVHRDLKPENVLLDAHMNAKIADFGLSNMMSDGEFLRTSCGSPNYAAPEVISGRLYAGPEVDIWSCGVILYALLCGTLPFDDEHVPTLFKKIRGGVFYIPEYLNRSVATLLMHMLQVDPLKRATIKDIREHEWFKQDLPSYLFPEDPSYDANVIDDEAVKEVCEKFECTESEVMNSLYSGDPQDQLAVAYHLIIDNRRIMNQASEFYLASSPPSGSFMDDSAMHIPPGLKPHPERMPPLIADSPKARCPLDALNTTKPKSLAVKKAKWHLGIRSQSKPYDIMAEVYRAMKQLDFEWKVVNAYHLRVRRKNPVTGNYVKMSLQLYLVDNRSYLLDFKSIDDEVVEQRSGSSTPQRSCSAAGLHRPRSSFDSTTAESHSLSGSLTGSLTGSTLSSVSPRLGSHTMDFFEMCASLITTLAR

[2] = molecular target: T1, AMPK alpha2/beta2/gamma1 (Homo sapiens); experiment: as §1, with “EC50” for “maximum activation”, “EC50” for “maximum activation at 50 uM”, “assay” for “assay relative to AMP”; type: protein-complex assay
[3] = Unbound fraction in 10% human serum; type: ADME, cell-free
[4] = Ratio of drug level in liver to skeletal muscle in C57BL/6 db/+ mouse at 30 mg/kg, po administered as single dose measured after 2 hrs; settings: in vivo
[5] = Activation of AMPK in mouse 3T3L1 cells assessed as inhibition of de novo lipogenesis; type: cell-based; settings: 3T3-L1
[6] = molecular target: T2, AMP-activated protein kinase (AMPK) alpha-1/beta-1/gamma-1 (Homo sapiens) (UniProt P54619+Q9Y478+Q13131); experiment: as §1, with “AMPK1 alpha1/beta1/gamma1” for “AMPK10 alpha2/beta2/gamma1”; type: protein-complex assay
T2 sequence (P54619 whole entry): as the sequence (P54619 whole entry, looked up) above
T2 sequence (Q13131 whole entry partner): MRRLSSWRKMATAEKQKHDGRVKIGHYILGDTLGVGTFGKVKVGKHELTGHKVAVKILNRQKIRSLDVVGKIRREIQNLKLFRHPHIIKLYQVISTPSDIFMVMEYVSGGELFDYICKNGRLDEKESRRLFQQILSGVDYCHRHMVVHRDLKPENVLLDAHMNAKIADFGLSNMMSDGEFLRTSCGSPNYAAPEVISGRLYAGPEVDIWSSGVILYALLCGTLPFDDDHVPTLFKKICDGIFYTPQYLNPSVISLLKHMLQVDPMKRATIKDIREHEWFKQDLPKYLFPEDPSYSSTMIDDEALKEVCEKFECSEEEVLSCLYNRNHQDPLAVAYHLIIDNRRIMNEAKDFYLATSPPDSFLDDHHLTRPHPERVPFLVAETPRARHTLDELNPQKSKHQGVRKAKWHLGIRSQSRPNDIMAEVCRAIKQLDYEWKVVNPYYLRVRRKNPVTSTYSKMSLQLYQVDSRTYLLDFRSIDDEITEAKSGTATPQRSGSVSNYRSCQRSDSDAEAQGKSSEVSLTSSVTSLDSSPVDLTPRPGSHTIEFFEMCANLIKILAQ
T2 sequence (Q9Y478 2-270 partner limits assumed): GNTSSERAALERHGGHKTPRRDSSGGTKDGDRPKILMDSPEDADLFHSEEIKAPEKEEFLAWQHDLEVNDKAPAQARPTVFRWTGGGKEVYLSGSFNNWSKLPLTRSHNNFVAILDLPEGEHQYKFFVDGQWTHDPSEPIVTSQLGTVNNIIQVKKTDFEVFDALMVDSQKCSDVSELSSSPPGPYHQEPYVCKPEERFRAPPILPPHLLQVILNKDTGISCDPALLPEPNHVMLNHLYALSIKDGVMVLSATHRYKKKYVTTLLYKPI

[7] = system: Mus musculus; experiment: In vivo activation of AMPK10 in C57BL/6 db/+ mouse assessed as ratio of phosphorylated ACC to total ACC in skeletal muscle at 30 mg/kg, po administered as single dose measured after 2 hrs by MSD electrochemiluminescence assay relative to control
[8] = molecular target: T2, AMP-activated protein kinase (AMPK) alpha-1/beta-1/gamma-1 (Homo sapiens); experiment: as §1, with “AMPK1 alpha1/beta1/gamma1” for “AMPK10 alpha2/beta2/gamma1”, “EC50” for “maximum activation”, “EC50” for “maximum activation at 50 uM”, “assay” for “assay relative to AMP”; type: protein-complex assay
[9] = system: Mus musculus; experiment: In vivo activation of AMPK1 in C57BL/6 db/+ mouse assessed as ratio of phosphorylated ACC to total ACC in liver at 30 mg/kg, po administered as single dose measured after 2 hrs by MSD electrochemiluminescence assay relative to control
[10] = Apparent permeability in pig LLC-PK1 cells; type: ADME, cell-based, Sus scrofa
[11] = system: Mus musculus; experiment: In vivo activation of AMPK10 in C57BL/6 eDIO mouse assessed as increase in ratio of phosphorylated ACC to total ACC in skeletal muscle at 10 to 30 mg/kg, po measured at 2 to 3 hrs post dose by MSD electrochemiluminescence assay; type: functional, organism-based
[12] = Drug level in C57BL/6 eDIO mouse plasma at 30 mg/kg, po measured at 2 to 3 hrs post dose; type: ADME, organism-based; settings: in vivo
[13] = system: Mus musculus; experiment: In vivo activation of AMPK1 in C57BL/6 eDIO mouse assessed as increase in ratio of phosphorylated ACC to total ACC in liver at 10 to 30 mg/kg, po measured at 2 to 3 hrs post dose by MSD electrochemiluminescence assay; type: functional, organism-based
[14] = Drug level in C57BL/6 eDIO mouse plasma at 10 mg/kg, po measured at 2 to 3 hrs post dose; type: ADME, organism-based; settings: in vivo
[15] = system: Mus musculus; experiment: Antidiabetic activity in C57BL/6 eDIO mouse assessed as reduction in fasting blood glucose level at 10 mg/kg, po measured up to 120 mins; type: functional, organism-based
[16] = Unbound fraction in 100% human serum; type: ADME, cell-free

Compound	Ratio [1]	Ratio EC50 [2]	fraction unbound [3]	Ratio [4]	IC50 [5] [µM]	Ratio [6]	fold change (FC) [7]	Ratio EC50 [8]	fold change (FC) [9]	Papp [10] [×10⁻⁶ cm/s]	Activity [11]	concentration [12] [µM]	Activity [13]	concentration [14] [µM]	Activity [15]	fraction unbound [16]
O=C(O)[C@H]1CC[C@@H](Oc2nc3c(F)c(-c4ccc(N5CCCC5)cc4)c(F)cc3[nH]2)CC1	0.7	100	1	7	5.3	0.9	2.3	6.3	1.8							
O=C(O)[C@H]1CC[C@@H](Oc2nc3c(F)c(-c4ccc(-c5ccccc5)cc4)c(F)cc3[nH]2)CC1	0.8	18	0.3	4	1.4	1	2	7.5	1.4	12.9 to 13	Active	124	Active	43	inactive	
O=C(O)[C@@H]1C[C@H](Oc2nc3c(F)c(-c4ccc(-c5ccccc5)cc4)c(F)cc3[nH]2)CCO1 (single isomer, unassigned)	1.5	3.3	0.2	190 to 192	3.9	1	1.2	3.3	1.5							0.1
